Laboratory results: patent publication US6765127B1, “Invertebrate intestinal mucin cDNA and related products and methods” (Boyce Thompson Institute for Plant Research, Inc., priority 1998, dated 2004)

Assays:
TnGV enhancin = TnGV enhancin (Trichoplusia ni granulosis virus, UniProt P29998); conditions: 10 mM EDTA in incubation buffer
Protocol: The degradation of IIM was examined by SDS/PAGE analysis. A parallel treatment of IIM without enhancin was included as a control. […] To confirm the metalloprotease nature of enhancin, IIM was incubated with TnGV enhancin in the presence of 10 mM EDTA.

[1] = system: endogenous midgut proteases; assay: Resistance of IIM in PMs to endogenous digestive proteases; parameters: species or system T. ni
Source text: The stability of the IIM when exposed to degestive enzymes for long periods is aided by the O-linked carbohydrate moieties found in associated glycoproteins. […] Control treatments using PMS with inactivated or inhibited endogenous midgut proteases, confirmed that the degradation of IIM in the presence of O-glycosidase was a result of hydrolysis by endogenous digestive proteases, following removal of the protective carbohydrate moiety, galactose β(1-3) N-acetylgalactosamine.

Helicoverpa zea = assay: PM formation with Calcofluor; format: in vivo
Hyphantria cunea = assay: PM formation with Calcofluor; format: in vivo
T. ni larvae [2] = assay: Baculovirus infection of Calcofluor treated larvae; format: in vivo; conditions: Calcofluor disrupted PM formation
T. ni larvae [3] = assay: PM formation in larvae fed Calcofluor; format: in vivo; conditions: Calcofluor fed to T. ni larvae
Source text: (§1) Calcofluor is a fluorescent dye with high chitin binding affinity. It has been utilized in studies on the formation of fungi and algal cell walls which are protective structures containing chitin and proteins. Calcofluor interferes with the cell wall formation by binding to nascent chitin molecules during cell wall formation, thus blocking chitin fibril assembly. Similar investigations on insect midgut chitin fibril formation using the chitin binding agent Calcofluor had not been approached until our recent studies were carried out. […] These isolated proteins have high chitin binding properties and are normally not extractable from fully formed PMs by detergents or extreme pH conditions. […] We believe that this phenomenon is due to the disruption of chitin fibril formation by the binding of Calcofluor to nascent chitin molecules as observed in other organisms.

Lymantria dispar = assay: PM formation with Calcofluor; format: in vivo
Pseudaletia unipuncta = assay: PM formation with Calcofluor; format: in vivo
T. ni PMs = assay: Extraction of chitin binding proteins from dissected PMs with Calcofluor
Source text: as §1

T. ni larvae [4] = assay: Feeding T. ni larvae artificial diet containing Calcofluor; format: in vivo; conditions: artificial diet containing 1% Calcofluor
[5] = system: mucin isolated from Pseudaletia unipuncta peritrophic membranes
[6] = system: T1, invertebrate intestinal mucin (IIM) from Trichoplusia ni peritrophic membranes (native protein)
T1 sequence: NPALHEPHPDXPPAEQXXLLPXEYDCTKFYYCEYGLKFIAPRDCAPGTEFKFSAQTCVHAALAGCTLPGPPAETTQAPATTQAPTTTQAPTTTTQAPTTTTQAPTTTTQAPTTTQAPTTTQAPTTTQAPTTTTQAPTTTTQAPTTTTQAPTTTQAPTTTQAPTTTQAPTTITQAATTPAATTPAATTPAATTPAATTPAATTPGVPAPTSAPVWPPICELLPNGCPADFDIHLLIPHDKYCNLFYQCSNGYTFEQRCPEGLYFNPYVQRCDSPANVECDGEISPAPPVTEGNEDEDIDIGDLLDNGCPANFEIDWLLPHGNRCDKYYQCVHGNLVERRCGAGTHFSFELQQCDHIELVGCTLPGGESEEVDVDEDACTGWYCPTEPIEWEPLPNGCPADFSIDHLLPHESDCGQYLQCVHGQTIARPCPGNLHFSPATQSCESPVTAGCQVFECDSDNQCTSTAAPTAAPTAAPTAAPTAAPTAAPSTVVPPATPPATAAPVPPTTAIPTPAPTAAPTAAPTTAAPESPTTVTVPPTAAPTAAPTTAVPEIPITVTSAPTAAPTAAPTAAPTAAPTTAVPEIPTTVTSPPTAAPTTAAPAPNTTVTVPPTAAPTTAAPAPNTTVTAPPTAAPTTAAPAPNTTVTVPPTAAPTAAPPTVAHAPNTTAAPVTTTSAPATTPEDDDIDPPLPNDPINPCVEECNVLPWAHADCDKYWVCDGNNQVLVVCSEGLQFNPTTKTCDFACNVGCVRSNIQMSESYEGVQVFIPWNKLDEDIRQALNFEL

Chain of TnGV enhancin (P29998 whole entry): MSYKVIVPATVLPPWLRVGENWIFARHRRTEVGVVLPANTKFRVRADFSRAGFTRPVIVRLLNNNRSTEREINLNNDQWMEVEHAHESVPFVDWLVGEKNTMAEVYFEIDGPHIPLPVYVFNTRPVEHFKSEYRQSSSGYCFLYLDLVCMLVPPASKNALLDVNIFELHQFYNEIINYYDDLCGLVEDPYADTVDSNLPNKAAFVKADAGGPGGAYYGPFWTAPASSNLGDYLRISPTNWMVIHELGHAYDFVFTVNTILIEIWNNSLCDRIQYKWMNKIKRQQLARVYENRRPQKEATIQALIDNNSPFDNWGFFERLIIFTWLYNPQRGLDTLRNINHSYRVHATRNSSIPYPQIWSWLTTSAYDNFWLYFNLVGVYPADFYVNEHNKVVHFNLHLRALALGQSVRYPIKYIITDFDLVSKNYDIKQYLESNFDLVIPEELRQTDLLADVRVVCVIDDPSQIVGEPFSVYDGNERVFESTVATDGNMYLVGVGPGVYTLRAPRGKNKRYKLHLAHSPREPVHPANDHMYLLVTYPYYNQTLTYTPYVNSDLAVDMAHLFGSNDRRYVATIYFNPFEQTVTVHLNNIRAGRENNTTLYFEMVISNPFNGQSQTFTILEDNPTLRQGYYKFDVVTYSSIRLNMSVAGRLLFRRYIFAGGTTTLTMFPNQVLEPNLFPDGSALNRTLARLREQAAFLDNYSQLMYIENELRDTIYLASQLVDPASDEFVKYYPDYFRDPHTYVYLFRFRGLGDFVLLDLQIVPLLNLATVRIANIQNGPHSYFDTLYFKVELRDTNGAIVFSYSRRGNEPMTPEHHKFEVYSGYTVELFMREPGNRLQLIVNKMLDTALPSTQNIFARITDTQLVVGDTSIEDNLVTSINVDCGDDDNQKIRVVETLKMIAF

O=C(O)CN(CCN(CC(=O)O)CC(=O)O)CC(=O)O [EDTA]
effect on digestion of IIM by TnGV enhancin (TnGV enhancin): blocked the digestion of the IIM

IIM: novel invertebrate intestinal mucin from T. ni peritrophic membranes; isoforms IIM14 and IIM22
degradation of IIM in PMs by endogenous digestive proteases ([1]; in the presence of O-glycosidase): quickly degraded
degradation of IIM in PMs by endogenous digestive proteases ([1]; sixteen hour incubation): no degradation

O=S(=O)([O-])c1cc(Nc2nc(Nc3ccccc3)nc(N(CCO)CCO)n2)ccc1C=Cc1ccc(Nc2nc(Nc3ccccc3)nc(N(CCO)CCO)n2)cc1S(=O)(=O)[O-].[Na+].[Na+] [Calcofluor]
PM disruption/inhibition (Helicoverpa zea): further verified
PM disruption/inhibition (Hyphantria cunea): further verified
baculovirus infections in the larvae (T. ni larvae [2]): significantly increased baculovirus infections
PM formation (T. ni larvae [3]): completely inhibited and/or disrupted PM formation
PM disruption/inhibition (Lymantria dispar): further verified
PM disruption/inhibition (Pseudaletia unipuncta): further verified
extraction of chitin binding proteins from dissected PMs (T. ni PMs): extract and solubilize chitin binding proteins
insect mortality (T. ni larvae [4]): insect mortality
larval growth (T. ni larvae [4]): significantly slowed the growth

Trichoplusia ni granulosis virus (TnGV) enhancin
degradation of the mucin [5]: This mucin is also degraded by the TnGV enhancin
degradation of IIM examined by SDS/PAGE (in vitro, 1.25 µg/ml enhancin, 37° C., 3 hours or overnight) [6]: Incubation of IIM with TnGV enhancin showed that the enhancin had activity against IIM.
digestion of IIM in the presence of 10 mM EDTA [6]: The addition of 10 mM EDTA to the incubation buffer blocked the digestion of the IIM and confirmed the metalloprotease nature of enhancin.
